The text below walks through data of US12466818B2, “Thienyl-aniline compounds for treatment of dermal disorders” (NFlection Therapeutics, Inc., priority 2018, dated 2025).

The subject of series [1] is A375 cells. The series is described as follows: Assay 2: A375 (BRAF) GI50 cell-based assay (Cell Titer-Glo). As to conditions: Homo sapiens, A-375, 72 hours. The method, then: Alternatively, the following procedure can be used to measure cell-based activity. Test compounds were dissolved in DMSO in 10 mM stock. Cell Titer-Glo® 2.0 Luminescent cell viability assay reagent was purchased from Promega (Madison, WI). A375 and HCT116 cell lines were purchased from American Type Culture Collection (Manassas, VA). For A375 cells, cell culture media was DMEM+10% FBS. For HCT116 cells, cell culture media was McCoy's 5A+10% FBS. All media were supplemented with 100 μg/mL of penicillin, and 100 μg/mL of streptomycin. Cultures were maintained at 37° C. in a humidified atmosphere of 5% CO2 and 95% air.
Test compounds were diluted in DMSO solution with 10-dose and 3-fold dilutions in a source plate starting at 10 mM. 25 nL of each test compound was delivered from the source plate to each well of the 384-well cell culture plates (T=Final) by Echo 550. 25 μL of culture medium containing 2000 of A375 or HCT116 cells was added to each of the wells in duplicates of the cell culture plates (T=0 and T=Final). 25 μL of Cell Titer Glo 2.0 reagent was added to each well of cell culture plate (T=0). The contents were mixed on an orbital shaker for 2 min and incubated at room temperature for 15 min to stabilize luminescent signal. Luminescence was recorded by Envision 2104 Multilabel Reader (PerkinElmer, Santa Clara, CA). The number of viable cells in culture was determined based on quantitation of the ATP present in each culture well. The cells in cell culture plate (T=Final) were incubated with the compounds at 37° C., 5% CO2 for 72 hours. 25 μL of Cell Titer Glo 2.0 reagent was added to each well. The contents were mixed on an orbital shaker for 2 min and incubated at room temperature for 15 min to stabilize luminescent signal. Luminescence was recorded by Envision 2104 Multilabel Reader (PerkinElmer, Santa Clara, CA). The number of viable cells in culture was determined based on quantitation of the ATP present in each culture well. The GI50 curves were plotted using the GraphPad Prism 4 program based on a sigmoidal dose-response equation Y=Bottom+(Top-Bottom)/(1+10^((Log EC50−X)*HillSlope)). All parameters in the equation were calculated by GraphPad Prism 4 program. […] Accordingly, GI50 is the value of 10^X, where X was calculated by the Curve Fitting Equation when Y=50 using Excel.
Assay 2 is the A375 (BRAF) GI50 (nM) cell-based assay as described in Example 39. A2 indicates an IC50 of less than or equal to 1 μM, and B2 indicates an IC50 of greater than 1 μM and less than or equal to 2 μM.
(In general: In ATP-based viability assays light output follows the ATP content of the culture.)

Series [2] can be described thus: Assay 4: liver S9 half-life stability assay. As to conditions: liver S9 fraction, pH 7.4; human liver S9, 1 μM test compound, NADPH. In kind it is in vitro ADME. The method, then: Compounds can be assessed for metabolic stability in human skin by assessing their rate of disappearance from human S9 skin fraction. Similarly, compounds can be assessed for metabolic stability in human liver by assessing their rate of disappearance from human S9 liver fraction. The protocol below is used to assess the difference between skin and hepatic metabolism.
The assay was carried out in 96-well microtiter plates at 37° C. Reaction mixtures (25 μL) contained a final concentration of 1 μM test compound, 2 mg/mL liver or skin protein, and 1 mM NADPH in buffer (100 mM potassium phosphate, pH 7.4 buffer with 1 mM EDTA, 3 mM MgCl2). At each of the time points (0, 15, 30, and 60 minutes), 150 μL, of quench solution (100% acetonitrile with 0.1% formic acid) with internal standard was transferred to each well. […]
(§1) All samples were analyzed on LC/MS/MS using an AB Sciex API 4000 instrument, coupled to a Shimadzu LC-20AD LC Pump system. […]
The extent of metabolism was calculated as the disappearance of the test compound, compared to the 0-min control reaction incubations. Initial rates were calculated for the compound concentration and used to determine tin values and subsequently, the intrinsic clearance, CLint=(0.693)(1/t1/2 (min)) (mL incubation/mg of S9 protein). […]

Series [3] can be described thus: Assay 6: liver microsomes half-life stability assay. In kind it is in vitro ADME. Conditions: pH 7.4; human liver microsomes, 1 μM test compound, NADPH. The protocol: Metabolic stability of testing compound can be evaluated using human liver microsomes to predict intrinsic clearance. Human liver microsomes are obtained from Corning Gentest.
The assay was carried out in 96-well microtiter plates at 37° C. Reaction mixtures (25 μL) contain a final concentration of 1 μM test compound, 0.5 mg/mL liver microsomes protein, and 1 mM NADPH in buffer (100 mM potassium phosphate, pH 7.4 buffer with 3 mM MgCl2). At each of the time points (0, 15, 30, and 60 minutes), 150 μL of quench solution (100% acetonitrile with 0.1% formic acid) with internal standard was transferred to each well. Verapamil was included as a positive control to verify assay performance. Plates were sealed and centrifuged at 4° C. for 15 minutes at 4000 rpm. The supernatant was transferred to fresh plates for LC/MS/MS analysis.
as §1
The extent of metabolism was calculated as the disappearance of the test compound, compared to the 0-min time incubation. Initial rates were calculated for the compound concentration and used to determine t1/2 values and subsequently, the intrinsic clearance, CLint=(0.693)(1/t1/2 (min))(g of liver/kg of body weight)(mL incubation/mg of microsomal protein)(45 mg of microsomal protein/g of liver weight). […]
For orientation: Liver microsomes are a subcellular fraction often used to study metabolism.

Broadly, the GI50 is the concentration that inhibits growth by half. A higher GI50 goes with lower sensitivity of the cells. The term half-life denotes how long it takes for the measured level to halve. Low values mean fast loss, high ones slow loss.

Compound `O=C1CCCc2c1sc(Nc1ccc(I)cc1F)c2C(=O)NOCCO` [Compound 1.029, 2-((2-Fluoro-4-iodophenyl)amino)-N-(2-hydroxyethoxy)-7-oxo-4,5,6,7-tetrahydrobenzo[b]thiophene-3-carboxamide] came in with a GI50 in series [1] of no more than 1000 nM. The values for the half-life at 1 μM in series [2] and in series [3] were 50 to 100 min and no more than 50 min, respectively.
